These results are taken from patent US20250340648A1, “COMBINATION THERAPY FOR TREATMENT OF CANCER COMPRISING ANTI-PD-L1 AND ANTI-CD73 ANTIBODIES” (MedImmune Limited, priority 2022, published 2025).

For one test, the system named is CT26 transcriptome. Nature of the test: RNAseq of treated CT26 tumors. Format: in vivo, Mus musculus. On the procedure:
Tumor tissue was flash-frozen in liquid nitrogen and stored at −80° C. at the time of collection in the animal unit and was sent to Novogene on dry ice. Tissue processing and RNA extraction was carried out by Novogene Co. by using the QIAGEN RNeasy Plus Universal kit (Qiagen, Cat. No. 73404), according to the manufacturer's protocol. Briefly, tissue samples were homogenized in QIAzol Lysis Reagent. The homogenate was then separated into aqueous and organic phases by centrifugation after addition of gDNA eliminator solution and chloroform. The upper, aqueous phase containing RNA was collected, and RNA purified using RNeasy spin columns. RNA quality check (QC) was performed by 1% Agarose gel electrophoresis, amount and purity were measured by Nanodrop, and RNA […] Number (RIN) was obtained by Bioanalyzer Agilent2100.
NEBNextR Ultra RNA library prep kit (Cat. No. E7530L) was used for library preparation for sequencing. Samples were sequenced using Illumina PE150 (50M reads/sample) bulk RNA-seq and downstream bioinformatic analysis was performed.
Reads were mapped to Mus musculus genome (mm10) genome using Star (Dobin A et al., Bioinformatics 2013; 29:15-21). Uniquely mapped reads were counted using htseq-count (Putri GH et al., Bioinformatics 2022; 38:2943-5). DESeq2 (Love M I et al., Genome Biol 2014; 15) was used to normalize counts with size factors and identify differentially expressed genes across conditions with a threshold of abs (log2FC)>1 and adjusted p value<0.05.
(§1) Gene set enrichment analysis was performed using R package ‘fGSEA’ (Korotkevich G et al., bioRxiv 2021; 060012) using hallmark gene sets from mouse MSigDB (Subramanian A. et al., Proc Natl Acad Sci USA 2005; 102:15545-50). Enrichment p-values were calculated as described in Korotkevich G et al., bioRxiv 2021; 060012 and p-values were adjusted using Benjamini-Hochberg method. Gene ontology Biological Process enrichments were identified using R package topGO (Bioconductor-topGO) with adj-pval<0.05. KEGG pathway enrichment analysis was conducted using R package clusterProfiler (Wu T. et al., The Innovation 2021; 2:100141). MCPCounter tool (Becht E. et al., Genome Biol 2016; 17:1-20) was used to estimate immune cell abundances for each sample and condition using immune gene signatures within MCPCounter.

Test [1] concerns immune cell populations in the treated CT26 tumors. Nature of the test: MCP-Counter estimate of immune cell abundance from RNAseq. Also noted: species or system mouse. Conditions: MCP counter on RNAseq. How it is done: as §1
Next we checked if the gene perturbation at this scale also led to changes in the enumeration of the cell populations. For this we estimated the abundance of immune cell populations in the treated CT26 tumors, using the MCP-Counter tool (Becht E, et al., Genome Biol 2016; 17:1-20).

Test [2] relates to adenosine pathway metabolites. Briefly: Mass Spectrometry Imaging of CT26 tumors. Format: in vivo, mouse. On the procedure:
Tumors were snap frozen in liquid nitrogen immediately after resection and the frozen tissues were embedded in a HPMC/PVP hydrogel as previously described (Dannhorn A. et al., Anal Chem 2020; 92:11080-8). Sectioning was performed on a CM3050 S cryostat (Leica Biosystems, Nussloch, Germany) at a section thickness of 10 um and the tissue sections were immediately thaw mounted and dried under a stream of nitrogen and sealed in vacuum pouches to preserve the metabolic integrity of the sections. Tissue sections for DESI-MSI and IMC were thaw-mounted onto Superfrost microscope slides (VWR, Cat. No. 630-2863), whilst sections prepared for MALDI-MSI were thaw mounted onto conductive indium tin oxide (ITO) coated slides (Bruker Daltonik, Cat. No. 8237001). Polyvinylpyrrolidone (PVP) and (Hydroxypropyl) methylcellulose (HPMC) (purchased from Merck (Cat. No.PVP360; H8384). Methanol (Cat. No. 15624680), iso-pentane (Cat. No. 15692830) and isopropyl alcohol (Cat. No. 10674732) were obtained from Fisher Scientific.
DESI-MSI analysis was performed on a Q-Exactive mass spectrometer (Thermo Scientific, Bremen, Germany) equipped with an automated 2D-DESI ion source (Prosolia Inc., Indianapolis, IN, USA) operated in negative ion mode, covering the applicable mass range up to m/z of 1000, with a nominal mass resolution of 70,000. […]

Test [3] relates to CT26 (colorectal) tumor cells. Nature of the test: CT26 syngeneic mouse tumor model. Format: in vivo, BALB/c mice. Conditions: CT26 tumors; result in words. On the procedure: (§2) In vivo studies were performed using 8-10 week old BALB/cAnNCrl mice (Charles River UK) or C57BL/6. Mice were housed in an AstraZeneca vivarium with access to food and water ad libidum and were cared for daily by trained personnel. Mice were acclimatized to the vivarium conditions for a week and handled according to the Home Office Animals Scientific Procedures Act, 1986, UK. All animal work was carried out under a Home Office approved project licence (PPL P49077891) and […] (RTx studies) as well as according to the institutional guidelines. BALB/c mice were subcutaneously implanted with 0.5e6 CT26 (colorectal) tumor cells. […] Tumors were measured with callipers three times a week, starting from day-5. […]
(§3) All in vivo data were collated in the Excel spreadsheets and transferred to GraphPad Prism 9.00 (GraphPad Software Inc.) for graphical representation and statistical analysis. After outlier identification and Shapiro-Wilk test for normality distribution, statistical significance was determined by One-way ANOVA followed by Dunnett's multiple comparison for comparisons of more than two groups if data were normally distributed. […] Survival studies were analysed with a log rank (Mantel-Cox) test, comparing only two survival curves at a time. […]

The test system of test [4] is MCA205 (fibrosarcoma) tumor cells. Nature of the test: MCA205 syngeneic mouse tumor model. The conditions noted are these: MCA205 tumors; result in words. Format: in vivo, C57BL/6 mice. How it is done: as §2, §3
The mark [5] stands for this setting: CT26 tumors vs control, abs(log2FC)>1, adjusted p<0.05.
[6] abbreviates: CT26 tumors, component added to the other parts of aCD73+aPD-L1+5FU+OHP.
Where [7] appears, read: component within aCD73+aPD-L1+5FU+OHP, not modulated in other iterations.

Entries after “also recorded” stand apart in the source; their conditions may differ.

Regarding “5-fluorouracil (5FU)+oxaliplatin (OHP) [5FU+OHP]”, in the test with CT26 transcriptome (setting [5]), the Down-regulated genes came to 158 genes, the Up-regulated genes is listed as 277 genes and the “differentially expressed (DE) genes” value is listed as 435 DE DE genes. The same substance registered an Up-regulated genes with CT26 transcriptome (CT26 tumors vs control, abs(log2FC)>1, adjusted p<0.05, listed as FF) of 277 Up- genes. Besides, in the test with CT26 transcriptome (setting [6]), the “genes downregulated when the named component is included in the combination” value is on record as “IL-10, IL-1b, CXCL2, S100A8”; the “genes upregulated or notably influenced when the named component is included in the combination” value is “Interferon-gamma, TRIM6, CCL17, Granzyme B, GDF15, perforin and Lag3”. Also, in the test with CT26 transcriptome (CT26 tumors, gene names), the individual genes downregulated result was “CXCL2 expression was reduced; also recorded: CXCL2, IL-1b, CD103 and XCR1”; the individual genes upregulated result was “CCL3, 4, 8, 17, CXCL10, GDF15, CD8a, IFNγ, Perforin, Granzyme, Lag-3 and PD-1; also recorded: IFN-Y, CCL3, CCL8, Lag-3 and granzyme B; also recorded: elevated ARORA2 gene expression”. Also, in the test on CT26 transcriptome (aCD73+aPD-L1+5FU+OHP vs the combination without the component, Abs(log2FC)>=1, Adj-pval<0.05), the “DE genes due to addition of the named component” value was determined as 546 DE genes. In the test with CT26 transcriptome (setting [7]), the “genes uniquely downregulated by the named component” value worked out at 122 genes and the “genes uniquely upregulated by the named component” value came to 360 genes. In addition, the “abundance of immune cell populations in tumor” value in test [1] was “increased lymphocyte representation”. In addition, the “ATP abundance (MSI)” value in test [2] (compared to control treated tumors) is given as “modest increase”. Further, the “AMP abundance (MSI)” value in test [2] (compared to other treatment groups) is listed as “modest increase”. Also, the “tumor growth inhibition / efficacy” value in test [3] is listed as “supressed tumor growth rates; also recorded: retarded tumor growth in a proportion of drug recipients”. In addition, in test [4], the “tumor growth inhibition / efficacy” value is “supressed tumor growth rates; also recorded: retarded tumor growth in a proportion of drug recipients”.
